Among the data in patent US8822688B2, “Imidazo[1,2-a]pyridine derivative” (Astellas Pharma Inc., priority 2010, dated 2014) are IC50 values, retold here.

Counter-ions that a name gives are not always drawn.

In the experiment the target is T1, human PDE4B2 (Homo sapiens, UniProt Q07343).
T1 construct: FLAG; made in house; host or cells: COS-1 cells (plasmid amplified in E. coli)
The experiment in a line: Human PDE4B activity inhibition test (SPA, [3H]-cAMP). The experiment is classed as biochemical. The conditions noted are these: FLAG-tagged human PDE4B2 purified from COS-1 cells; 30 min at room temperature; read-out: IC50 (nM), human PDE4B inhibitory activity. The protocol: Test Method 1: Human PDE4B Inhibitory Activity
(1) Purification of Human PDE4B Enzyme
Plasmid DNA encoding FLAG-tagged human PDE4B2 was prepared and transfected into E. coli, and mass cultivation was performed. After extracting and purifying the plasmid DNA from the E. coli, the resultant was transfected into COS-1 cells and cultured. After the cells were homogenized, the expressed enzyme was purified using a FLAG peptide affinity column.
(2) Human PDE4B Activity Inhibition Test
1 μl/well of DMSO solution in which various concentrations of test compounds were dissolved and 74 μl/well of the purified enzyme diluted with a buffer were added to 96-well plates, and incubated at room temperature for 10 minutes. A buffer including 40 nM [^3H]-cAMP (Amersham, TRK559) and 4 μM cAMP were added at 25 μl/well and reacted for 30 minutes at room temperature. A suspension (18 mM ZnSO4, 5 mM IBMX, distilled water) of polylysin coated yttrium silicate SPA beads (Amersham, RPNQ0010) was added at 50 μl/well, and the reaction was stopped. After standing for 20 minutes at room temperature, the radioactivity was measured using a top count instrument and set as an index of enzyme activity. For evaluating the enzyme inhibitory activity of the test compound in each experiment, a value of IC50 was calculated with the radiation activity of the well of adding the vehicle (DMSO) and the enzyme as 0% inhibition and the radiation activity of the well of adding only the vehicle and not adding the enzyme as 100% inhibition.

T1 sequence (Q07343 1-564 isoform Q07343-2): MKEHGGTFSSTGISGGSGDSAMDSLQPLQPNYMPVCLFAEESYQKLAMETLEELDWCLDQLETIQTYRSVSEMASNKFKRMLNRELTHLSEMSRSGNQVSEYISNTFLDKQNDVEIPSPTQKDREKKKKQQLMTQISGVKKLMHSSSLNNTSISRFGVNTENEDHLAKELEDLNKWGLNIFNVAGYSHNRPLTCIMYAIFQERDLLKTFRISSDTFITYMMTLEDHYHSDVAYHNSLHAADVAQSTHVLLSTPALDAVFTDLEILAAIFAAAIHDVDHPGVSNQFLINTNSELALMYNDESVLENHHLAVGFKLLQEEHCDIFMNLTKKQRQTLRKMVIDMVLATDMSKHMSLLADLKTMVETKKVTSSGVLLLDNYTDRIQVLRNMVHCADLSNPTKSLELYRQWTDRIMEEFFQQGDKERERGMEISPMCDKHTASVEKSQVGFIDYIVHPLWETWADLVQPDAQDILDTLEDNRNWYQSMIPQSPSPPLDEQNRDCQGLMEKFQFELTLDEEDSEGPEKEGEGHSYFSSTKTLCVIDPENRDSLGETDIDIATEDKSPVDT

Usually IC50 stands for the concentration that inhibits the measured activity by half. In the case of `CO[C@]1(CO)CCN(c2c3c(c(C(N)=O)c4nc5ccccc5n24)CCC3)C[C@H]1F` (relative stereo) [Example 10], the IC50 was determined as 48 nM. As for `CO[C@@]1(CO)CCN(c2c3c(c(C(N)=O)c4nc5ccccc5n24)CC(C)(C)C3)C[C@@H]1F` (relative stereo) [Example 22, rel-11-[(3R,4S)-3-fluoro-4-(hydroxymethyl)-4-methoxypiperidin-1-yl]-2,2-dimethyl-2,3-dihydro-1H-cyclopenta[4,5]pyrido[1,2-a]benzimidazole-4-carboxamide], the figure is 11.8 nM; as for `CC1(CO)CCN(c2c3c(c(C(N)=O)c4nc5ccccc5n24)CCC3)CC1` [Example 2], 13 nM.

Regarding `CC1(C)CCc2c(c(N3CCC(C)(CO)CC3)n3c(nc4ccccc43)c2C(N)=O)C1` [Example 4], the concentration for half-maximal inhibition (IC50) was found to be 86 nM. As for `N#CC1(CO)CCN(c2c3c(c(C(N)=O)c4nc5ccccc5n24)CCC3)CC1` [Example 5], the figure is 14 nM; as for `COC1(CO)CCN(c2c3c(c(C(N)=O)c4nc5ccccc5n24)CCC3)CC1` [Example 8], 8 nM.

As to `COC1(CO)CCN(c2c3c(c(C(N)=O)c4nc5ccccc5n24)CC(C)(C)C3)CC1` [Example 12], the IC50 came to 2.7 nM. As for `COC1(CO)CCN(c2c3c(c(C(N)=O)c4nc5ccccc5n24)C2CCC3C2)CC1` (centres unmarked) [Example 14], the figure is 3.3 nM; as for `COC1(CO)CCN(c2c3c(c(C(N)=O)c4nc5c(n24)CCCC5)CCC3)CC1` [Example 15], 26 nM; as for `COC1(CO)CCN(c2c3c(c(C(N)=O)c4nc5ccccc5n24)CCSC3)CC1` [Example 16], 15 nM. Then `CC1(CN)CCN(c2c3c(c(C(N)=O)c4nc5ccccc5n24)CCC3)CC1` [Example 18, 11-[4-(aminomethyl)-4-methylpiperidin-1-yl]-2,3-dihydro-1H-cyclopenta[4,5]pyrido[1,2-a]benzimidazole-4-carboxamide dihydrochloride], with 18 nM; and `NC(=O)c1c2c(c(N3CCC4(CO)CC4C3)n3c1nc1ccccc13)CCC2` (centres unmarked) [Example 23, 11-[6-(hydroxymethyl)-3-azabicyclo[4.1.0]hept-3-yl]-2,3-dihydro-1H-cyclopenta[4,5]pyrido[1,2-a]benzimidazole-4-carboxamide hydrochloride], with 42 nM. Then `NC(=O)c1c2c(c(N3CCC4(CC3)CNC4)n3c1nc1ccccc13)CCC2` [Example 25, 11-(2,7-diazaspiro[3.5]non-7-yl)-2,3-dihydro-1H-cyclopenta[4,5]pyrido[1,2-a]benzimidazole-4-carboxamide dihydrochloride], with 8.2 nM; and `NC(=O)c1c2c(c(N3CCC4(CCNC4)CC3)n3c1nc1ccccc13)CCC2` [Example 26], with 13 nM.
